Experimental data reported in patent US12648928B2, “Intervention strategy for prevention or treatment of diabetes mellitus, autoimmune disease, inflammatory disease or cardiovascular disease” (ACADEMISCH MEDISCH CENTRUM, priority 2020, dated 2026).

What was measured:
[1] = tested on: murine CD4+ T cells; test: In vitro CD4+ T cell activation assay (anti-CD3/anti-CD28); assay type: cell-based; details: for Th1 responses in CD4 T cells: anti-CD3 & anti-CD28 mAbs, 24 hours (FIG. 11)
Experimental: Primary CD4+ T cells were freshly isolated by negative selection from spleens of C57/B16 mice (N=3 per experiment). Briefly, spleens were smashed in a culture dish and passed twice through a strainer (70 μm and 40 μm, respectively) to obtain a single-cell suspension.
Using the negative selection (CD4+ T Cell Isolation kit, Miltenyi Biotec, #130-10-454). Non-CD4 T cells were depleted by retaining them in LS magnetizing column (Miltenyi Biotec).
Isolated CD4 T cells were cultured in 96-well plates (1×10^5 per well) in RPMI1640 medium supplemented with 10% fetal bovine serum, 100 U/ml penicillin, 100 μg/ml streptomycin, 2 mM L-glutamine. Treatment with the metabolites 6-BT (1/10 μM), LysoPC(20:0) (10/50 μM) or MA-GPC (10/50/100 μM) and activation with 2.5 μg/ml soluble anti-CD3 (145-2C11, eBioscience) and 1 μg/ml soluble anti-CD28 (37.51, eBioscience) antibodies started immediately after seeding in 200 i/well complete RPMI1640 media for a 24-hour period, at the end of which supernatant was harvested and stored at −80° C.
(§1) Specific ELISAs (R&D Systems) were utilized to measure the concentration of TNFα, IFNβ, and IFNγ in cell supernatant of murine monocytes, macrophages ad T cells, respectively, according to the manufacturer's instructions. The concentration of insulin after 24-hour treatment with metabolites or after GSIS were determined using Rat insulin ELISA (Mercodia) according to the manufacturer's instructions. GSIS was calculated by subtracting the concentration of insulin at 1 mM glucose to the insulin rate at 22 mM glucose.
Particularly in the context of autoimmune diabetes, the activity of T cells is driving disease onset and progression. […] To mimic antigen presentation, murine CD4 T cells (isolated from spleens; Uchimura T., The Innate Immune Sensor NLRC3 Acts as a Rheostat that Fine-Tunes T Cell Responses in Infection and Autoimmunity. Immunity 2019) were activated by monoclonal antibodies against CD3 and CD28 (2.5 and 1 μg/ml, respectively).

[2] = tested on: NF-κB; test: NF-κB reporter macrophage luciferase assay (RAW264.7); assay type: cell-based, murine; details: RAW264.7 3x-κB-luc; LPS 10/100 ng/ml 2 hours; different doses (FIG. 7)
Experimental: NF-κB signaling activation was assessed by luciferase activity assay. RAW264.7 cells stably transfected with the 3×-κB-luc plasmid (DNA construct containing three NF-κB sites from the Ig κ light chain promoter coupled to the gene encoding firefly luciferase) were grown in DMEM medium supplemented with 10% heat-inactivated fetal bovine serum, penicillin (100 U/ml), streptomycin (100 μg/ml), L-glutamine (2 mM). Cells were seeded in F-bottom 96-well […] metabolites at different concentrations (6-BT 0,1-100 μM, LysoPC(20:0) 1-10 μM, 16:0-18:2 PE 1-50 μM, MA-GPC 1-100 μM). Afterwards, cells were lysed with 25 μl/well 1×passive lysis buffer and firefly luciferase activity was measured by LUCIFERASE® Assay System (Promega, E1500) on a GLOMAX @-Multi Detection System (Promega).

[3] = tested on: murine bone marrow-isolated monocytes or bone marrow-derived macrophages; test: In vitro stimulation of murine monocytes / bone marrow-derived macrophages, cytokine ELISA; assay type: cell-based; details: for cytokine secretion by monocytes: murine monocytes CD11b+ activated with LPS (10 μg/ml) for 24 hours, TLR4 stimulation (FIG. 8)
Experimental: Naïve bone marrow monocytes were isolated from BM cells. Briefly, hind legs were removed from 3 mice, cleaned from surrounding muscles. The femur and tibia bones were trimmed at their extremities, the BM content was flushed out with cold PBS using a 10 ml syringe and a 25G needle and filtered through a 40 μm strainer. Red blood cells (RBC) were lysed with 1× RBC lysis buffer (Biolegend) for 5 min. on ice. CD11b+ monocytes were further purified by positive selection using a cocktail of CD11 b magnetic beads (Miltenyi Biotec, #130-049-601) and magnetizing MS columns (Miltenyi Biote) according to the manufacturer's instructions. Subsequently, monocytes were seeded in F-bottom 96-well plates at 1×10^5 cells per well in RPMI1640 supplemented with 10% heat-inactivated fetal bovine serum, penicillin (100 U/ml), streptomycin (100 μg/ml), L-glutamine (2 mM) […]. Monocytes were activated with 10 μg/ml LPS (Sigma-Aldrich) and subjected to treatment with 6-BT (10/100 μM), LysoPC(20:0) (10/50 μM), MA-GPC (10/50/100 μM), or appropriate vehicle. Cells were kept in a final volume of 200 μl/well for 24 hours, after which supernatant was harvested and stored at −80° C.
Bone marrow-derived macrophages (BMDM) and DC (BMDC) were obtained by differentiating freshly isolated BM cells from femur and tibia bones (as above described) of C57/B16 mice (N=3 per experiment). For BMDM, BM cells were seeded at 3×10^6 cells per 10 cm dish and cultured for 7 days in 12 ml RPMI1640 medium with 20% fetal bovine serum, 30% L-929 cell conditioned media, as source of murine macrophage colony-stimulating factor (M-CSF). For BMDC, BM cells were seeded at 0.5×10^6/ml cells in 25 ml in 10 cm dishes and cultured for 7 days in presence of GM-CSF in 5% FBS-RPMI1640 medium. After differentiation, BMDM/DCs were harvested, counted and seeded at a density of 1×10^5 cells per well in a F-bottom 96-well plate and left to adhere for 20 hours before experiments were performed. Macrophages were activated with 10 μg/ml polyinosinic-polycytidylic acid poly(I.C) (InvivoGen) for 24 hours in presence or not of 6-BT (10/100 μM), LysoPC(20:0) (10/50 μM), or MA-GPC (10/50/100 μM) in a final volume of 200 μl/well. At the end of the assay, supernatant was harvested and stored at −80° C.
as §1
Here, murine bone marrow-isolated monocytes (Christ A., Western Diet Triggers NLRP3-Dependent Innate Immune Reprogramming. Cell 2018) or bone marrow-derived macrophages (Swanson K V, A noncanonical function of cGAMP in inflammasome priming and activation. JEM 2017) were exposed for 24 hours to the indicated concentrations of 6-BT (10-100 μM) in presence or not of 10 μg/ml LPS, 10 μg/ml P3C or 10 μg/ml poly(I.C).

[4] = tested on: INS1E beta cells; test: Seahorse XF intracellular metabolism, INS1E beta cells; assay type: cell-based, rat; details: INS1E beta cells; compared with 6-BT
Description: Lastly, it was investigated whether 6-BT may influence the mitochondrial metabolism of beta cells, which rely on ATP and mitochondrial metabolite production for insulin exocytosis. […] Intracellular metabolism measured using a Seahorse XF Analyzer Uchimura T., The Innate Immune Sensor NLRC3 Acts as a Rheostat that Fine-Tunes T Cell Responses in Infection and Autoimmunity.

Row | SMILES | Th1 responses in CD4 T cells [1] | NFκB pathway activation in macrophages [2] | cytokine secretion by monocytes [3] | type 1 IFN secretion ([3]; PolyI:C for 24 hours, TLR3 stimulation (FIG. 9)) | production of the Th1 cytokine IFNgamma ([1]; CD4 T cells from spleens, anti-CD3 2.5 μg/ml and anti-CD28 1 μg/ml (FIGS. 16, 20)) | effect on intracellular metabolism [4]
1 | CCCCC/C=C\C/C=C\C/C=C\C/C=C\CCCC(=O)OC[C@@H](O)COP(=O)([O-])OCC[N+](C)(C)C [A-GPC, 1-arachidonoyl-glycero-phosphocholine] | dampen Th1 responses | can inhibit NFκB pathway activation | halt cytokine secretion |  |  | 
2 | CCCCC/C=C\C/C=C\C/C=C\C/C=C\CCCC(=O)O[C@H](COC(=O)CCCCCCCCCCCCC)COP(=O)([O-])OCC[N+](C)(C)C [MA-GPC, 1-myristoyl-2-arachidonoyl-glycero-phosphocholine] | hampers immune responses | can inhibit NFκB pathway activation | halt cytokine secretion | impair type 1 IFN secretion |  | 
3 | N[C@@H](Cc1c[nH]c2ccccc12)C(=O)O [tryptophan, reference compound] |  |  |  |  | but not tryptophan, exerted inhibitory effect | exerted a different effect than 6-BT
